Measured values: patent US20110250135A1, “Piperazine Derivatives for Binding and Imaging Amyloid Plaques and Their Use” (Bayer Schering Pharma Aktiengesellschaft, priority 2008, published 2011)

Legend:
[1] = target: T1, Aβ plaques (Homo sapiens, UniProt P05067); assay: Autoradiographical analysis of binding to cryosections from cortex of AD patients and controls; conditions: F-18 labeled compound; Alzheimer's disease patients (AD) vs controls without Aβ plaques
T1 construct: controls without Aβ plaques; from tissue; host or cells: frontal lobe / cortex sections (frozen and paraffin) from AD patients, FTD patients and age-matched controls
T1 sequence (P05067 672-713 limits assumed): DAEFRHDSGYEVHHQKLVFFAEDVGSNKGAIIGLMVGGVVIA
Excerpt: Fresh frozen as well as paraffin embedded sections of the frontal lobe from Alzheimer's dementia patients, frontotemporal dementia patients and age matched controls were used for the study. Frozen sections, sliced at 18 μm thickness on a cryostate (Leica, Germany) and paraffin sections, sliced on a sliding microtom (Leica) at a thickness of 6 μm, were mounted onto glass slides (Superfrost Plus, Fa.Menzel, Braunschweig Germany). Frozen sections were allowed to adhere to the slides for several nights at −20° C. The paraffin sections were deparaffinized using routine histological methods. For binding studies sections were incubated with the F-18 labeled test compound at 10 Bq/μl diluted in 25 mM Hepes buffer, pH 7.4, 0.1% (BSA) (200-300 μl/slide) for 1.5 hour at room temperature in a humidified chamber. For blocking experiments a 1000-fold access of the unlabeled test substance was added to the incubation mixture. After hybridization, sections were washed four times with Hepes buffer, 0.1% BSA (or alternatively two times with 40% ethanol) and finally dipped two times into dest. water for 10 sec. The air-dried sections were exposed to imaging plates and signals were detected by a phosphoimager device (Fuji BAS5000).

[2] = Biodistribution: organ distribution of F-18 signal in mice; assay type: in vivo, male NMRI mice; conditions: for Organ distribution of F-18 signal, intestine: intestine (with content); for Organ distribution of F-18 signal, stomach: stomach (without content)
Experimental: Biodistribution and excretion studies were performed in male NMRI mice (body weight app. 30g; 3 animals per time point). The animals were kept under normal laboratory conditions at a temperature of 22±2° C. and a dark/light rhythm of 12 hours. Food and water were provided ad libitium. During an acclimation period of at least 3 days before the beginning of the study animals were clinically examined to ascertain the absence of abnormal clinical signs. At 2, 5, 30, 60, 240 min post intravenous injection via the tail vein of ca. 150 kBq in 100 μl of the test compound, urine and feces were quantitatively collected. At the same time points, animals were sacrificed by decapitation and under isoflurane anaesthesia and the following organs and tissues were removed for the determination of radioactivity using a gamma-counter: spleen, liver, kidney, lung, femur, heart, brain, fat, thyroid, muscle, skin, blood, tail, stomach (without content), testicle, intestine (with content), pancreas, adrenals, and the remaining body. For analysis the decay corrected percentage of the injected dose per tissue weight (% ID/g±standard deviation) was calculated.

Structure (SMILES): O=C(NCC(=O)N1CCN(c2ccc(OCc3ccccc3)cc2)CC1)c1cccnc1[18F] [Example 12c, N-{2-[4-(4-Benzyloxy-phenyl)-piperazin-1-yl]-2-oxoethyl}-2-[F-18]-fluoro-nicotinamide]
- autoradiographical analysis of binding to cryosections from cortex [1]: Specific binding in plaque-rich regions of AD samples
- Organ distribution of F-18 signal, adrenals ([2]; 2 min post i.v. injection): 6.60 % ID/g
- Organ distribution of F-18 signal, adrenals ([2]; 5 min post i.v. injection): 10.38 % ID/g
- Organ distribution of F-18 signal, adrenals ([2]; 30 min post i.v. injection): 2.77 % ID/g
- Organ distribution of F-18 signal, adrenals ([2]; 60 min post i.v. injection): 1.55 % ID/g
- Organ distribution of F-18 signal, adrenals ([2]; 240 min post i.v. injection): 0.40 % ID/g
- Organ distribution of F-18 signal, blood ([2]; 2 min post i.v. injection): 1.78 % ID/g
- Organ distribution of F-18 signal, blood ([2]; 5 min post i.v. injection): 1.90 % ID/g
- Organ distribution of F-18 signal, blood ([2]; 30 min post i.v. injection): 1.30 % ID/g
- Organ distribution of F-18 signal, blood ([2]; 60 min post i.v. injection): 0.70 % ID/g
- Organ distribution of F-18 signal, blood ([2]; 240 min post i.v. injection): 0.09 % ID/g
- Organ distribution of F-18 signal, brain ([2]; 2 min post i.v. injection): 5.37 % ID/g
- Organ distribution of F-18 signal, brain ([2]; 5 min post i.v. injection): 4.60 % ID/g
- Organ distribution of F-18 signal, brain ([2]; 30 min post i.v. injection): 1.28 % ID/g
- Organ distribution of F-18 signal, brain ([2]; 60 min post i.v. injection): 0.60 % ID/g
- Organ distribution of F-18 signal, brain ([2]; 240 min post i.v. injection): 0.07 % ID/g
- Organ distribution of F-18 signal, fat ([2]; 2 min post i.v. injection): 1.00 % ID/g
- Organ distribution of F-18 signal, fat ([2]; 5 min post i.v. injection): 1.92 % ID/g
- Organ distribution of F-18 signal, fat ([2]; 30 min post i.v. injection): 1.89 % ID/g
- Organ distribution of F-18 signal, fat ([2]; 60 min post i.v. injection): 1.29 % ID/g
- Organ distribution of F-18 signal, fat ([2]; 240 min post i.v. injection): 0.11 % ID/g
- Organ distribution of F-18 signal, femur ([2]; 2 min post i.v. injection): 1.70 % ID/g
- Organ distribution of F-18 signal, femur ([2]; 5 min post i.v. injection): 1.63 % ID/g
- Organ distribution of F-18 signal, femur ([2]; 30 min post i.v. injection): 5.55 % ID/g
- Organ distribution of F-18 signal, femur ([2]; 60 min post i.v. injection): 7.65 % ID/g
- Organ distribution of F-18 signal, femur ([2]; 240 min post i.v. injection): 7.96 % ID/g
- Organ distribution of F-18 signal, heart ([2]; 2 min post i.v. injection): 4.76 % ID/g
- Organ distribution of F-18 signal, heart ([2]; 5 min post i.v. injection): 4.28 % ID/g
- Organ distribution of F-18 signal, heart ([2]; 30 min post i.v. injection): 1.52 % ID/g
- Organ distribution of F-18 signal, heart ([2]; 60 min post i.v. injection): 0.69 % ID/g
- Organ distribution of F-18 signal, heart ([2]; 240 min post i.v. injection): 0.08 % ID/g
- Organ distribution of F-18 signal, intestine ([2]; 2 min post i.v. injection): 1.78 % ID/g
- Organ distribution of F-18 signal, intestine ([2]; 5 min post i.v. injection): 2.44 % ID/g
- Organ distribution of F-18 signal, intestine ([2]; 30 min post i.v. injection): 6.62 % ID/g
- Organ distribution of F-18 signal, intestine ([2]; 60 min post i.v. injection): 8.88 % ID/g
- Organ distribution of F-18 signal, intestine ([2]; 240 min post i.v. injection): 10.54 % ID/g
- Organ distribution of F-18 signal, kidney ([2]; 2 min post i.v. injection): 7.70 % ID/g
- Organ distribution of F-18 signal, kidney ([2]; 5 min post i.v. injection): 7.76 % ID/g
- Organ distribution of F-18 signal, kidney ([2]; 30 min post i.v. injection): 7.88 % ID/g
- Organ distribution of F-18 signal, kidney ([2]; 60 min post i.v. injection): 3.63 % ID/g
- Organ distribution of F-18 signal, kidney ([2]; 240 min post i.v. injection): 0.58 % ID/g
- Organ distribution of F-18 signal, liver ([2]; 2 min post i.v. injection): 5.84 % ID/g
- Organ distribution of F-18 signal, liver ([2]; 5 min post i.v. injection): 8.93 % ID/g
- Organ distribution of F-18 signal, liver ([2]; 30 min post i.v. injection): 8.20 % ID/g
- Organ distribution of F-18 signal, liver ([2]; 60 min post i.v. injection): 6.01 % ID/g
- Organ distribution of F-18 signal, liver ([2]; 240 min post i.v. injection): 2.40 % ID/g
- Organ distribution of F-18 signal, lung ([2]; 2 min post i.v. injection): 3.52 % ID/g
- Organ distribution of F-18 signal, lung ([2]; 5 min post i.v. injection): 3.73 % ID/g
- Organ distribution of F-18 signal, lung ([2]; 30 min post i.v. injection): 1.78 % ID/g
- Organ distribution of F-18 signal, lung ([2]; 60 min post i.v. injection): 0.79 % ID/g
- Organ distribution of F-18 signal, lung ([2]; 240 min post i.v. injection): 0.15 % ID/g
- Organ distribution of F-18 signal, muscle ([2]; 2 min post i.v. injection): 2.48 % ID/g
- Organ distribution of F-18 signal, muscle ([2]; 5 min post i.v. injection): 17.41 % ID/g
- Organ distribution of F-18 signal, muscle ([2]; 30 min post i.v. injection): 0.88 % ID/g
- Organ distribution of F-18 signal, muscle ([2]; 60 min post i.v. injection): 0.47 % ID/g
- Organ distribution of F-18 signal, muscle ([2]; 240 min post i.v. injection): 0.06 % ID/g
- Organ distribution of F-18 signal, pancreas ([2]; 2 min post i.v. injection): 3.58 % ID/g
- Organ distribution of F-18 signal, pancreas ([2]; 5 min post i.v. injection): 4.30 % ID/g
- Organ distribution of F-18 signal, pancreas ([2]; 30 min post i.v. injection): 1.55 % ID/g
- Organ distribution of F-18 signal, pancreas ([2]; 60 min post i.v. injection): 0.75 % ID/g
- Organ distribution of F-18 signal, pancreas ([2]; 240 min post i.v. injection): 0.12 % ID/g
- Organ distribution of F-18 signal, skin ([2]; 2 min post i.v. injection): 1.25 % ID/g
- Organ distribution of F-18 signal, skin ([2]; 5 min post i.v. injection): 1.23 % ID/g
- Organ distribution of F-18 signal, skin ([2]; 30 min post i.v. injection): 1.51 % ID/g
- Organ distribution of F-18 signal, skin ([2]; 60 min post i.v. injection): 0.66 % ID/g
- Organ distribution of F-18 signal, skin ([2]; 240 min post i.v. injection): 0.08 % ID/g
- Organ distribution of F-18 signal, spleen ([2]; 2 min post i.v. injection): 1.32 % ID/g
- Organ distribution of F-18 signal, spleen ([2]; 5 min post i.v. injection): 2.08 % ID/g
- Organ distribution of F-18 signal, spleen ([2]; 30 min post i.v. injection): 0.87 % ID/g
- Organ distribution of F-18 signal, spleen ([2]; 60 min post i.v. injection): 0.42 % ID/g
- Organ distribution of F-18 signal, spleen ([2]; 240 min post i.v. injection): 0.06 % ID/g
- Organ distribution of F-18 signal, stomach ([2]; 2 min post i.v. injection): 3.14 % ID/g
- Organ distribution of F-18 signal, stomach ([2]; 5 min post i.v. injection): 3.52 % ID/g
- Organ distribution of F-18 signal, stomach ([2]; 30 min post i.v. injection): 1.91 % ID/g
- Organ distribution of F-18 signal, stomach ([2]; 60 min post i.v. injection): 1.89 % ID/g
- Organ distribution of F-18 signal, stomach ([2]; 240 min post i.v. injection): 0.71 % ID/g
- Organ distribution of F-18 signal, tail ([2]; 2 min post i.v. injection): 12.72 % ID/g
- Organ distribution of F-18 signal, tail ([2]; 5 min post i.v. injection): 6.80 % ID/g
- Organ distribution of F-18 signal, tail ([2]; 30 min post i.v. injection): 2.72 % ID/g
- Organ distribution of F-18 signal, tail ([2]; 60 min post i.v. injection): 3.08 % ID/g
- Organ distribution of F-18 signal, tail ([2]; 240 min post i.v. injection): 1.30 % ID/g
- Organ distribution of F-18 signal, testicle ([2]; 2 min post i.v. injection): 1.21 % ID/g
- Organ distribution of F-18 signal, testicle ([2]; 5 min post i.v. injection): 1.79 % ID/g
- Organ distribution of F-18 signal, testicle ([2]; 30 min post i.v. injection): 1.09 % ID/g
- Organ distribution of F-18 signal, testicle ([2]; 60 min post i.v. injection): 0.58 % ID/g
- Organ distribution of F-18 signal, testicle ([2]; 240 min post i.v. injection): 0.08 % ID/g
- Organ distribution of F-18 signal, thyroid ([2]; 2 min post i.v. injection): 3.59 % ID/g
- Organ distribution of F-18 signal, thyroid ([2]; 5 min post i.v. injection): 3.10 % ID/g
- Organ distribution of F-18 signal, thyroid ([2]; 30 min post i.v. injection): 1.92 % ID/g
- Organ distribution of F-18 signal, thyroid ([2]; 60 min post i.v. injection): 1.27 % ID/g
- Organ distribution of F-18 signal, thyroid ([2]; 240 min post i.v. injection): 0.41 % ID/g
